Experimental data as given in patent US8268862B2, “Sirtuin modulating compounds” (Sirtris Pharmaceuticals, Inc., priority 2007, dated 2012).

Target: T1, SIRT1 (Homo sapiens, UniProt Q96EB6)
T1 sequence (Q96EB6 1-747): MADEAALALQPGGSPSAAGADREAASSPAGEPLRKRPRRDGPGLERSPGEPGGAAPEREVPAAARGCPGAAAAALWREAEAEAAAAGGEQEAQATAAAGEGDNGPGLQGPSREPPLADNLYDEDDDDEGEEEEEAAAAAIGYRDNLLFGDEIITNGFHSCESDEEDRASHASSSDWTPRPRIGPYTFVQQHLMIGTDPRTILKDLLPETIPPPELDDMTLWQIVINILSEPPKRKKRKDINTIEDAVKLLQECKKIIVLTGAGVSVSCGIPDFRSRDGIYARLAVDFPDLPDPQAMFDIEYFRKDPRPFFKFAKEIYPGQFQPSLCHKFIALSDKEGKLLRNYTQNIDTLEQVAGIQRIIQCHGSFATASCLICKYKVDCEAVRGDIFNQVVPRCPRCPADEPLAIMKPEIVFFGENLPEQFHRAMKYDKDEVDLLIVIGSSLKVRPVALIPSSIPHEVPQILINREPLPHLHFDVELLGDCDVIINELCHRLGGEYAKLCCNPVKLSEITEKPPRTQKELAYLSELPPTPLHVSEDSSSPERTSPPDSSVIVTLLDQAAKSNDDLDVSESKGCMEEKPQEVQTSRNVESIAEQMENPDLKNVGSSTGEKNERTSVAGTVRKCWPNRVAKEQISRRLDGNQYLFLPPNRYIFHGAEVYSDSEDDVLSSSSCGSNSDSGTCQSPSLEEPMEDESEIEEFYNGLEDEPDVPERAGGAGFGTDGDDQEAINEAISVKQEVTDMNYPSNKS
Assay: mass spectrometry based SIRT1 deacetylation assay (activation)
Type: biochemical
Conditions: 0.5 μM peptide substrate, 120 μM βNAD+, 10 nM SIRT1, 25 min at 25° C.; for EC1.5 (concentration of test compound that results in 150% activation of SIRT1): NA = not active in the assay; for Emax: read-out: % FOLD ACT. (percent maximum fold activation of SIRT1)

Row | Compound | EC1.5 (concentration of test compound that results in 150% activation of SIRT1) [NM] | Emax [%] | % FOLD ACT. (percent maximum fold activation of SIRT1) [%]
1 | O=C(Nc1ccccc1-c1nc2cc(CN3CCC(O)CC3)cnc2s1)c1ccc2ccccc2n1 [Compound 99] | 110 | 244 | –
2 | O=C(Nc1ccccc1-c1nc2cc(CN3CC[C@H](F)C3)cnc2s1)c1ccc2ccccc2n1 [Compound 100] | 1440 | 201 | –
3 | O=C(Nc1ccccc1-c1nc2cc(CN3CCC(F)(F)C3)cnc2s1)c1ccc2ccccc2n1 [Compound 101] | – | 133 | –
4 | O=C(Nc1ccccc1-c1nc2cc(CN3CCC(F)(F)CC3)cnc2s1)c1ccc2ccccc2n1 [Compound 102] | – | 131 | –
5 | O=C1CN(Cc2cnc3sc(-c4ccccc4NC(=O)c4ccc5ccccc5n4)nc3c2)CCN1 [Compound 103] | 230 | 273 | –
6 | O=C(Nc1ccccc1-c1nc2cc(CN3CC[C@@H](O)C3)cnc2s1)c1ccc2ccccc2n1 [Compound 104] | 200 | 221 | –
7 | COc1cc(C(=O)Nc2ccccc2-c2nc3cc(CN4CCOCC4)cnc3s2)nc2ccccc12 [Compound 105] | 1590 | 292 | –
8 | O=C(Nc1ccccc1-c1nc2cc(CN3CCOCC3)cnc2s1)c1cnc2ccccc2c1 [Compound 106] | 69840 | 189 | –
9 | O=C(Nc1ccccc1-c1nc2cc(CN3CCOCC3)cnc2s1)c1ccc2cccnc2n1 [Compound 107] | 500 | 219 | –
10 | O=C(Nc1ccccc1-c1nc2cc(CN3CCSCC3)cnc2s1)c1ccc2ccccc2n1 [Compound 108] | 1060 | 178 | –
11 | N[C@@H]1CCN(Cc2cnc3sc(-c4ccccc4NC(=O)c4ccc5ccccc5n4)nc3c2)C1 [Compound 109] | 270 | > 500 | –
12 | O=C(Nc1ccccc1-c1nc2cc(CN3CC[C@H](O)C3)cnc2s1)c1ccc2ccccc2n1 [Compound 110] | 230 | 307 | –
13 | O=C(Nc1ccccc1-c1nc2cc(CN3CCOCC3)cnc2s1)c1cn2ccccc2n1 [Compound 111] | 1610 | 427 | –
14 | O=C(Nc1ccccc1-c1nc2cc(CN3CCOCC3)cnc2s1)c1cn2cccnc2n1 [Compound 112] | 2330 | 375 | –
15 | O=C(Nc1ccccc1-c1nc2cc(CN3CC[C@@H](F)C3)cnc2s1)c1ccc2ccccc2n1 [Compound 113] | 370 | 232 | –
16 | O=C(Nc1ccccc1-c1nc2cc(CN3CCC(F)CC3)cnc2s1)c1ccc2ccccc2n1 [Compound 114] | – | 146 | –
17 | NC1CCN(Cc2cnc3sc(-c4ccccc4NC(=O)c4ccc5ccccc5n4)nc3c2)CC1 [Compound 115] | 620 | > 500 | –

Further lines, results first:

Row | EC1.5 (concentration of test compound that results in 150% activation of SIRT1) [NM] | Emax [%] | % FOLD ACT. (percent maximum fold activation of SIRT1) [%] | Compound
18 | 270 | > 500 | – | O=C(Nc1ccccc1-c1nc2cc(CNC3CCNCC3)cnc2s1)c1ccc2ccccc2n1 [Compound 116]
19 | 480 | 324 | – | O=C(Nc1ccccc1-c1nc2cc(CN[C@H]3CC[C@H](O)CC3)cnc2s1)c1ccc2ccccc2n1 [Compound 117]
20 | – | 100 | – | O=C(Nc1ccccc1-c1nc2cc(CN3CCCC(F)(F)C3)cnc2s1)c1ccc2ccccc2n1 [Compound 118]
21 | 390 | – | >500 | N[C@@H]1CCN(Cc2cnc3sc(-c4ccccc4NC(=O)c4ccc5ccccc5n4)nc3c2)C1 [Compound 119]
22 | 820 | > 500 | – | O=C(Nc1ccccc1-c1nc2cc(CN[C@H]3CCNC3)cnc2s1)c1ccc2ccccc2n1 [Compound 120]
23 | 750 | 291 | – | O=C(Nc1ccccc1-c1nc2cc(CN[C@@H]3CCC[C@H]3O)cnc2s1)c1ccc2ccccc2n1 [Compound 121]
24 | 1940 | 400 | – | O=C(Nc1ccccc1-c1nc2cc(CN3CCNCC3)cnc2s1)c1cn2ccccc2n1 [Compound 123]
25 | 1060 | 314 | – | O=C(Nc1ccccc1-c1nc2cc(CN3CCNCC3)cnc2s1)c1cn2cc(F)ccc2n1 [Compound 124]
26 | – | 437 | – | O=C(Nc1ccccc1-c1nc2cc(CN3CCNCC3)cnc2s1)c1cn2cc(Cl)ccc2n1 [Compound 125]
27 | – | 100 | – | O=C(Nc1ccccc1-c1nc2cc(CN3CCNCC3)cnc2s1)c1nc2ccc(F)cc2o1 [Compound 126]
28 | – | 143 | – | O=C(Nc1ccccc1-c1nc2cc(CN3CCOCC3)cnc2s1)c1cn2cc(Cl)ccc2n1 [Compound 127]
29 | 1310 | 227 | – | O=C(Nc1ccccc1-c1nc2cc(CN3CCOCC3)cnc2s1)c1cn2cc(F)ccc2n1 [Compound 128]
30 | – | 100 | – | O=C(Nc1ccccc1-c1nc2cc(CN3CC[C@@H](F)C3)cnc2s1)c1cn2cc(C(F)(F)F)ccc2n1 [Compound 129]
31 | 990 | 161 | – | COCCN1CCN(Cc2cnc3sc(-c4ccccc4NC(=O)c4cnc5ccccc5n4)nc3c2)CC1 [Compound 130]
32 | 106 | 500 | – | COCCN1CCN(Cc2cnc3sc(-c4ccccc4NC(=O)c4cc(C)nc(-c5ccccc5)n4)nc3c2)CC1 [Compound 131]
33 | 215 | 500 | – | Cc1cc(C(=O)Nc2ccccc2-c2nc3cc(CN4CCOCC4)cnc3s2)nc(-c2ccccc2)n1 [Compound 132]
34 | 90 | 500 | – | COCCN1CCN(Cc2cnc3sc(-c4ccccc4NC(=O)c4cccc(-c5ccccc5Cl)n4)nc3c2)CC1 [Compound 133]
35 | 69 | 500 | – | COCCN1CCN(Cc2cnc3sc(-c4ccccc4NC(=O)c4cccc(-c5ccccc5F)n4)nc3c2)CC1 [Compound 134]
36 | 759 | 274 | – | Cc1cc(C(=O)Nc2ccccc2-c2nc3cc(CN4CCCC4)cnc3s2)nc(-c2ccccc2)n1 [Compound 135]
37 | 448 | 461 | – | COCCN1CCN(Cc2cnc3sc(-c4ccccc4NC(=O)c4cccc(-c5ccc(C(F)(F)F)cc5)n4)nc3c2)CC1 [Compound 136]
38 | 214 | 448 | – | COCCN1CCN(Cc2cnc3sc(-c4ccccc4NC(=O)c4cccc(-c5ccc(Cl)cc5)n4)nc3c2)CC1 [Compound 137]
39 | 88 | 497 | – | COCCN1CCN(Cc2cnc3sc(-c4ccccc4NC(=O)c4cccc(-c5cccc(Cl)c5)n4)nc3c2)CC1 [Compound 138]
40 | 230 | 457 | – | COCCN1CCN(Cc2cnc3sc(-c4ccccc4NC(=O)c4cccc(-c5ccccc5C(F)(F)F)n4)nc3c2)CC1 [Compound 139]
